# System: host cell cytotoxicity, % cell control, 5% serum
# Experiment: host cell cytotoxicity, R5 fusion assay cells, dose response, cytotoxicity control for HIV-1 antiviral lead project, CCR5-tropic fusion assay, 5% serum, set 2 (AID 504573)
row,Compound,CC50 [µM]
1,Cc1c2c(=O)n(-c3nc4ccccc4s3)nc-2cc(O)n1CCc1ccc(O)cc1,3.74
2,Cc1c2c(=O)n(-c3nc4ccccc4s3)nc-2cc(O)n1C1CC1,4.98
3,Cc1c2c(=O)n(-c3nc4ccccc4s3)nc-2cc(O)n1Cc1cccnc1,3.89
4,Cc1c2c(=O)n(-c3nc4ccccc4s3)nc-2cc(O)n1Cc1ccncc1,5.07
5,Cc1c2c(=O)n(-c3nc4ccccc4s3)nc-2cc(O)n1Cc1ccccc1Cl,4.34
6,COc1ccccc1Cn1c(O)cc2nn(-c3nc4ccccc4s3)c(=O)c-2c1C,8.08
7,Cc1c2c(=O)n(-c3nc4ccccc4s3)nc-2cc(O)n1Cc1ccc(F)cc1,4.4
8,Cc1c2c(=O)n(-c3nc4ccccc4s3)nc-2cc(O)n1Cc1ccccc1,5.4
9,Cc1c2c(=O)n(-c3nc4ccccc4s3)nc-2cc(O)n1CCC(C)C,5.64
10,COc1ccc(CCn2c(O)cc3nn(-c4nc5ccccc5s4)c(=O)c-3c2C)cc1,7.2
11,Cc1c2c(=O)n(-c3nc4ccccc4s3)nc-2cc(O)n1CCc1cccs1,5.51
12,Cc1c2c(=O)n(-c3nc4ccccc4s3)nc-2cc(O)n1Cc1cccs1,5.94
13,COc1ccc(Cn2c(O)cc3nn(-c4nc5ccccc5s4)c(=O)c-3c2C)cc1,5.15
